ChEMBL document CHEMBL3407340, “Synthesis, radiolabeling and evaluation of novel 4-oxo-quinoline derivatives as PET tracers for imaging cannabinoid type 2 receptor” (Eur J Med Chem, 2015)
Active and inactive are the calls of the source. The rule behind the calls is not given here.

Tests used:
Brain [1] = assay: Drug uptake in LPS-treated mouse whole brain at 10 to 18 MBq, iv by PET imaging analysis in presence of […]; format: ADME, organism-based; conditions: in vivo
Cortex [2] = assay: Drug uptake in LPS-treated mouse cortex at 10 to 18 MBq, iv by PET imaging analysis in presence of […]; format: ADME, organism-based; conditions: in vivo
Hippocampus [3] = assay: Drug uptake in LPS-treated mouse hippocampus at 10 to 18 MBq, iv by PET imaging analysis in presence of […]; format: ADME, organism-based; conditions: in vivo
Cerebellum [4] = assay: Drug uptake in LPS-treated mouse cerebellum at 10 to 18 MBq, iv by PET imaging analysis in presence of GW405883; format: ADME, organism-based; conditions: in vivo
Plasma [5] = assay: Stability in human plasma after 40 mins; format: ADME, cell-free
[6] = Partition coefficient, log D of the compound in n-octanol/phosphate buffer at pH 7.4 after 15 mins by shake flask method; format: physicochemical
Plasma [7] = assay: Stability in mouse plasma after 40 mins; format: ADME, cell-free
Plasma [8] = assay: Stability in rat plasma after 40 mins; format: ADME, cell-free
[9] = Drug uptake in human cervical spinal cord at 0.4 nM after 15 mins by autoradiography; format: ADME, tissue-based; conditions: 0.25 h, 0.0004 µM
[10] = Drug uptake in human lumbar spinal cord at 0.4 nM after 15 mins by autoradiography; format: ADME, tissue-based; conditions: 0.25 h, 0.0004 µM
[11] = Drug metabolism in Wistar rat plasma assessed as parent compound remaining at 115 to 163 MBq, iv after 5 mins; format: ADME, organism-based; conditions: read-out: Stability
[12] = Drug metabolism in Wistar rat plasma assessed as parent compound remaining at 115 to 163 MBq, iv after 10 mins; format: ADME, organism-based; conditions: read-out: Stability
[13] = Drug metabolism in Wistar rat plasma assessed as parent compound remaining at 115 to 163 MBq, iv after 20 mins; format: ADME, organism-based; conditions: read-out: Stability
[14] = Drug metabolism in Wistar rat spleen assessed as parent compound remaining at 115 to 163 MBq, iv after 20 mins; format: ADME, organism-based; conditions: read-out: Stability
Spleen [15] = assay: Biodistribution in Wistar rat spleen at 5 to 10 MBq, iv after 15 mins by gamma counting analysis; format: ADME, organism-based; conditions: in vivo, 0.25 h
Liver [16] = assay: Biodistribution in Wistar rat liver at 5 to 10 MBq, iv after 15 mins by gamma counting analysis; format: ADME, organism-based; conditions: in vivo, 0.25 h
Kidney [17] = assay: Biodistribution in Wistar rat kidneys at 5 to 10 MBq, iv after 15 mins by gamma counting analysis; format: ADME, organism-based; conditions: in vivo, 0.25 h
Adrenal gland [18] = assay: Biodistribution in Wistar rat adrenal gland at 5 to 10 MBq, iv after 15 mins by gamma counting analysis; format: ADME, organism-based; conditions: in vivo, 0.25 h
Lung [19] = assay: Biodistribution in Wistar rat lung at 5 to 10 MBq, iv after 15 mins by gamma counting analysis; format: ADME, organism-based; conditions: in vivo, 0.25 h
Bone [20] = assay: Biodistribution in Wistar rat bone at 5 to 10 MBq, iv after 15 mins by gamma counting analysis; format: ADME, organism-based, Bone element; conditions: in vivo, 0.25 h
Heart [21] = assay: Biodistribution in Wistar rat heart at 5 to 10 MBq, iv after 15 mins by gamma counting analysis; format: ADME, organism-based; conditions: in vivo, 0.25 h
Rattus norvegicus [22] = assay: Biodistribution in Wistar rat fat at 5 to 10 MBq, iv after 15 mins by gamma counting analysis; format: ADME, organism-based, Adipose tissue; conditions: in vivo, 0.25 h
Small intestine [23] = assay: Biodistribution in Wistar rat small intestine at 5 to 10 MBq, iv after 15 mins by gamma counting analysis; format: ADME, organism-based; conditions: in vivo, 0.25 h
Rattus norvegicus [24] = assay: Biodistribution in Wistar rat testis at 5 to 10 MBq, iv after 15 mins by gamma counting analysis; format: ADME, organism-based; conditions: in vivo, 0.25 h
Blood [25] = assay: Biodistribution in Wistar rat blood at 5 to 10 MBq, iv after 15 mins by gamma counting analysis; format: ADME, organism-based; conditions: in vivo, 0.25 h
Rattus norvegicus [26] = assay: Biodistribution in Wistar rat thyroid gland at 5 to 10 MBq, iv after 15 mins by gamma counting analysis; format: ADME, organism-based; conditions: in vivo, 0.25 h
[27] = Biodistribution in Wistar rat urine at 5 to 10 MBq, iv after 15 mins by gamma counting analysis; format: ADME, organism-based; conditions: in vivo, 0.25 h
Muscle tissue [28] = assay: Biodistribution in Wistar rat muscle at 5 to 10 MBq, iv after 15 mins by gamma counting analysis; format: ADME, organism-based; conditions: in vivo, 0.25 h
Pancreas [29] = assay: Biodistribution in Wistar rat pancreas at 5 to 10 MBq, iv after 15 mins by gamma counting analysis; format: ADME, organism-based; conditions: in vivo, 0.25 h
Zone of skin [30] = assay: Biodistribution in Wistar rat skin at 5 to 10 MBq, iv after 15 mins by gamma counting analysis; format: ADME, organism-based; conditions: in vivo, 0.25 h
Brain [31] = assay: Biodistribution in Wistar rat brain at 5 to 10 MBq, iv after 15 mins by gamma counting analysis; format: ADME, organism-based; conditions: in vivo, 0.25 h
Spleen [32] = assay: Biodistribution in Wistar rat spleen at 5 to 10 MBq, iv after 15 mins by gamma counting analysis in presence of GW405883; format: ADME, organism-based; conditions: in vivo, 0.25 h
Liver [33] = assay: Biodistribution in Wistar rat liver at 5 to 10 MBq, iv after 15 mins by gamma counting analysis in presence of GW405883; format: ADME, organism-based; conditions: in vivo, 0.25 h
Kidney [34] = assay: Biodistribution in Wistar rat kidneys at 5 to 10 MBq, iv after 15 mins by gamma counting analysis in presence of GW405883; format: ADME, organism-based; conditions: in vivo, 0.25 h
Adrenal gland [35] = assay: Biodistribution in Wistar rat adrenal gland at 5 to 10 MBq, iv after 15 mins by gamma counting analysis in presence of GW405883; format: ADME, organism-based; conditions: in vivo, 0.25 h
Lung [36] = assay: Biodistribution in Wistar rat lung at 5 to 10 MBq, iv after 15 mins by gamma counting analysis in presence of GW405883; format: ADME, organism-based; conditions: in vivo, 0.25 h
Bone [37] = assay: Biodistribution in Wistar rat bone at 5 to 10 MBq, iv after 15 mins by gamma counting analysis in presence of GW405883; format: ADME, organism-based, Bone element; conditions: in vivo, 0.25 h
Heart [38] = assay: Biodistribution in Wistar rat heart at 5 to 10 MBq, iv after 15 mins by gamma counting analysis in presence of GW405883; format: ADME, organism-based; conditions: in vivo, 0.25 h
Rattus norvegicus [39] = assay: Biodistribution in Wistar rat fat at 5 to 10 MBq, iv after 15 mins by gamma counting analysis in presence of GW405883; format: ADME, organism-based, Adipose tissue; conditions: in vivo, 0.25 h
Small intestine [40] = assay: Biodistribution in Wistar rat small intestine at 5 to 10 MBq, iv after 15 mins by gamma counting analysis in presence of GW405883; format: ADME, organism-based; conditions: in vivo, 0.25 h
Rattus norvegicus [41] = assay: Biodistribution in Wistar rat testis at 5 to 10 MBq, iv after 15 mins by gamma counting analysis in presence of GW405883; format: ADME, organism-based; conditions: in vivo, 0.25 h
Blood [42] = assay: Biodistribution in Wistar rat blood at 5 to 10 MBq, iv after 15 mins by gamma counting analysis in presence of GW405883; format: ADME, organism-based; conditions: in vivo, 0.25 h
Rattus norvegicus [43] = assay: Biodistribution in Wistar rat thyroid gland at 5 to 10 MBq, iv after 15 mins by gamma counting analysis in presence of GW405883; format: ADME, organism-based; conditions: in vivo, 0.25 h
[44] = Biodistribution in Wistar rat urine at 5 to 10 MBq, iv after 15 mins by gamma counting analysis in presence of GW405883; format: ADME, organism-based; conditions: in vivo, 0.25 h
Muscle tissue [45] = assay: Biodistribution in Wistar rat muscle at 5 to 10 MBq, iv after 15 mins by gamma counting analysis in presence of GW405883; format: ADME, organism-based; conditions: in vivo, 0.25 h
Pancreas [46] = assay: Biodistribution in Wistar rat pancreas at 5 to 10 MBq, iv after 15 mins by gamma counting analysis in presence of GW405883; format: ADME, organism-based; conditions: in vivo, 0.25 h
Zone of skin [47] = assay: Biodistribution in Wistar rat skin at 5 to 10 MBq, iv after 15 mins by gamma counting analysis in presence of GW405883; format: ADME, organism-based; conditions: in vivo, 0.25 h
Brain [48] = assay: Biodistribution in Wistar rat brain at 5 to 10 MBq, iv after 15 mins by gamma counting analysis in presence of GW405883; format: ADME, organism-based; conditions: in vivo, 0.25 h
Spleen [49] = assay: Biodistribution in Wistar rat spleen at 5 to 10 MBq, iv after 15 mins by gamma counting analysis in presence of GW405883 relative to control; format: ADME, organism-based; conditions: in vivo, 0.25 h
Brain [50] = assay: Drug uptake in LPS-treated mouse brain at 0.2 nM, iv after 5 days by PET imaging analysis relative to vehicle-treated control; format: ADME, organism-based; conditions: in vivo, 120 h, 0.0002 µM
Brain [51] = assay: Drug uptake in LPS-treated mouse brain at 0.2 nM, iv after 5 days by PET imaging analysis in presence of GW405883 relative to control; format: ADME, organism-based; conditions: in vivo, 120 h, 0.0002 µM
Brain [52] = assay: Drug uptake in LPS-treated mouse whole brain at 10 to 18 MBq, iv by PET imaging analysis; format: ADME, organism-based; conditions: in vivo
Cortex [53] = assay: Drug uptake in LPS-treated mouse cortex at 10 to 18 MBq, iv by PET imaging analysis; format: ADME, organism-based; conditions: in vivo
Hippocampus [54] = assay: Drug uptake in LPS-treated mouse hippocampus at 10 to 18 MBq, iv by PET imaging analysis; format: ADME, organism-based; conditions: in vivo
Cerebellum [55] = assay: Drug uptake in LPS-treated mouse cerebellum at 10 to 18 MBq, iv by PET imaging analysis; format: ADME, organism-based; conditions: in vivo
Cannabinoid receptor 1 = Cannabinoid receptor 1 (Homo sapiens, UniProt P21554); assay: Displacement of [3H]-CP-55940 from human CB1 receptor transfected in CHOK1 cells after 90 mins by liquid scintillation counting analysis; format: cell-based, CHO-K1
Sequence of Cannabinoid receptor 1 (P21554 whole entry): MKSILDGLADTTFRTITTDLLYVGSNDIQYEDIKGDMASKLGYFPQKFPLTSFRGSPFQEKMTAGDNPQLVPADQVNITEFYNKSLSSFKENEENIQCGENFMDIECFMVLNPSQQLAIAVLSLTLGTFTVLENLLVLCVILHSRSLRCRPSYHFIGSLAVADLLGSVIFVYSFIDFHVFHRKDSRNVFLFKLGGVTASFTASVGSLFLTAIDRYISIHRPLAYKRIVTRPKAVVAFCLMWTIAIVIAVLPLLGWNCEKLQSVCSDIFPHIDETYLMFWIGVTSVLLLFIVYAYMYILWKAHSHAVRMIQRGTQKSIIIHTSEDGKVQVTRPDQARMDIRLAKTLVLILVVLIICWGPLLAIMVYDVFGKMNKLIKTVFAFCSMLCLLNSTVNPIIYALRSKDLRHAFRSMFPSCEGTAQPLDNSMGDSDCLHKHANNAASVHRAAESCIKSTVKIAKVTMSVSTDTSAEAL

[56] = target: Cannabinoid receptor 2 (Mus musculus) (UniProt P47936); assay: Binding affinity to CB2 receptor in mouse spleen at 0.4 nM after 15 mins by autoradiography in presence of GW405833; conditions: tested as the 11C-labelled form
Sequence of Cannabinoid receptor 2 (Mus musculus) (P47936 whole entry): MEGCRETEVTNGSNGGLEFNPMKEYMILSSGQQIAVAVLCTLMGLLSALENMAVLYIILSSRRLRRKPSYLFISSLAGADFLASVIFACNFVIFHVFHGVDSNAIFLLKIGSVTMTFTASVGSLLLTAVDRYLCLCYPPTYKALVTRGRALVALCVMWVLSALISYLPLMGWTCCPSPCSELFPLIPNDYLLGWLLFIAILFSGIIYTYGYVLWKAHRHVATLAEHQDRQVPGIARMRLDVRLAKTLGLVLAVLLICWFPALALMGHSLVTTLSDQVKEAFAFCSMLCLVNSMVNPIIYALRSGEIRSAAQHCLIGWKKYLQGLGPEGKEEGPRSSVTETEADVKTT

[57] = target: Cannabinoid receptor 2 (Rattus norvegicus) (UniProt Q9QZN9); assay: Binding affinity to CB2 receptor in rat spleen at 0.4 nM after 15 mins by autoradiography in presence of GW405833; format: tissue-based; conditions: tested as the 11C-labelled form
Sequence of Cannabinoid receptor 2 (Rattus norvegicus) (Q9QZN9 whole entry): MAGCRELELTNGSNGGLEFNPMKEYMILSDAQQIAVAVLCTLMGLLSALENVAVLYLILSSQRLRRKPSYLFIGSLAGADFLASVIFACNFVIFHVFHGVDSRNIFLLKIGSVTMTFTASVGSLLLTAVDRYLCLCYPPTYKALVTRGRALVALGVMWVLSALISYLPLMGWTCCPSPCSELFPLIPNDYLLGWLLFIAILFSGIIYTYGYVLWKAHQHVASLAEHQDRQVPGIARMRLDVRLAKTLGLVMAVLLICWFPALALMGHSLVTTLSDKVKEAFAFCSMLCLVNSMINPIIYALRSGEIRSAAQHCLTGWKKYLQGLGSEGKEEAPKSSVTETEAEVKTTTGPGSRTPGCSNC

CCOCCn1cc(C(=O)NC23CC4CC(CC(C4)C2)C3)c(=O)c2cccc(O[11CH3])c21
Drug uptake (Brain [1]): Not Active
Drug uptake (Cortex [2]): Not Active
Drug uptake (Hippocampus [3]): Not Active
Drug uptake (Cerebellum [4]): Not Active
Stability (Plasma [5]): Stable
logD at 0.25 h [6]: 2.78
Stability (Plasma [7]): Stable
Stability (Plasma [8]): Stable
Drug uptake [9]: Active
Drug uptake [10]: Active
remaining at 5 min [11]: 72%
remaining at 10 min [12]: 55%
remaining at 20 min [13]: 47%
remaining at 20 min [14]: 81%
Drug uptake (Spleen [15]): 0.284 % ID/g
Drug uptake (Liver [16]): 0.505 % ID/g
Drug uptake (Kidney [17]): 0.122 % ID/g
Drug uptake (Adrenal gland [18]): 0.216 % ID/g
Drug uptake (Lung [19]): 0.088 % ID/g
Drug uptake (Bone [20]): 0.046 % ID/g
Drug uptake (Heart [21]): 0.08 % ID/g
Drug uptake (Rattus norvegicus [22]): 0.05 % ID/g
Drug uptake (Small intestine [23]): 0.924 % ID/g
Drug uptake (Rattus norvegicus [24]): 0.033 % ID/g
Drug uptake (Blood [25]): 0.044 % ID/g
Drug uptake (Rattus norvegicus [26]): 0.077 % ID/g
Drug uptake [27]: 0.06 % ID/g
Drug uptake (Muscle tissue [28]): 0.065 % ID/g
Drug uptake (Pancreas [29]): 0.11 % ID/g
Drug uptake (Zone of skin [30]): 0.05 % ID/g
Drug uptake (Brain [31]): 0.025 % ID/g
Drug uptake (Spleen [32]): 0.062 % ID/g
Drug uptake (Liver [33]): 0.38 % ID/g
Drug uptake (Kidney [34]): 0.134 % ID/g
Drug uptake (Adrenal gland [35]): 0.262 % ID/g
Drug uptake (Lung [36]): 0.075 % ID/g
Drug uptake (Bone [37]): 0.039 % ID/g
Drug uptake (Heart [38]): 0.091 % ID/g
Drug uptake (Rattus norvegicus [39]): 0.053 % ID/g
Drug uptake (Small intestine [40]): 0.425 % ID/g
Drug uptake (Rattus norvegicus [41]): 0.034 % ID/g
Drug uptake (Blood [42]): 0.03 % ID/g
Drug uptake (Rattus norvegicus [43]): 0.064 % ID/g
Drug uptake [44]: 0.08 % ID/g
Drug uptake (Muscle tissue [45]): 0.071 % ID/g
Drug uptake (Pancreas [46]): 0.113 % ID/g
Drug uptake (Zone of skin [47]): 0.057 % ID/g
Drug uptake (Brain [48]): 0.028 % ID/g
Drug uptake (Spleen [49]): 78%
Drug uptake (Brain [50]): Active
Drug uptake (Brain [51]): Not Active
Drug uptake (Brain [52]): Active
Drug uptake (Cortex [53]): Active
Drug uptake (Hippocampus [54]): Active
Drug uptake (Cerebellum [55]): Active

CCOCCn1cc(C(=O)NC23CC4CC(CC(C4)C2)C3)c(=O)c2cccc(OC)c21
Ki (Cannabinoid receptor 1): > 10 µM
Activity [56]: inactive
Activity [57]: inactive
